For orientation: IC50 means the concentration needed to halve the response being measured. As a reminder, the inhibition is how much of the control response was suppressed. As usually defined, the AUC is the area under the concentration-time curve, a measure of exposure. Lower therefore signals less exposure.

One data set deals with EGFR kinase (Homo sapiens, UniProt P00533). Kind of data set: EGFR/ErbB2 enzymatic experiment (HTRF kinEASE-TK), EGFR. To be noted: EGFR kinase 0.06 units/μL, ATP 1.65 μM; read-out: Kinase IC50 (nM) in vitro EGFR. In kind it is biochemical. For orientation: In TR-FRET formats the signal depends on donor and acceptor labels being close together.
Sequence of EGFR kinase (P00533 25-1210): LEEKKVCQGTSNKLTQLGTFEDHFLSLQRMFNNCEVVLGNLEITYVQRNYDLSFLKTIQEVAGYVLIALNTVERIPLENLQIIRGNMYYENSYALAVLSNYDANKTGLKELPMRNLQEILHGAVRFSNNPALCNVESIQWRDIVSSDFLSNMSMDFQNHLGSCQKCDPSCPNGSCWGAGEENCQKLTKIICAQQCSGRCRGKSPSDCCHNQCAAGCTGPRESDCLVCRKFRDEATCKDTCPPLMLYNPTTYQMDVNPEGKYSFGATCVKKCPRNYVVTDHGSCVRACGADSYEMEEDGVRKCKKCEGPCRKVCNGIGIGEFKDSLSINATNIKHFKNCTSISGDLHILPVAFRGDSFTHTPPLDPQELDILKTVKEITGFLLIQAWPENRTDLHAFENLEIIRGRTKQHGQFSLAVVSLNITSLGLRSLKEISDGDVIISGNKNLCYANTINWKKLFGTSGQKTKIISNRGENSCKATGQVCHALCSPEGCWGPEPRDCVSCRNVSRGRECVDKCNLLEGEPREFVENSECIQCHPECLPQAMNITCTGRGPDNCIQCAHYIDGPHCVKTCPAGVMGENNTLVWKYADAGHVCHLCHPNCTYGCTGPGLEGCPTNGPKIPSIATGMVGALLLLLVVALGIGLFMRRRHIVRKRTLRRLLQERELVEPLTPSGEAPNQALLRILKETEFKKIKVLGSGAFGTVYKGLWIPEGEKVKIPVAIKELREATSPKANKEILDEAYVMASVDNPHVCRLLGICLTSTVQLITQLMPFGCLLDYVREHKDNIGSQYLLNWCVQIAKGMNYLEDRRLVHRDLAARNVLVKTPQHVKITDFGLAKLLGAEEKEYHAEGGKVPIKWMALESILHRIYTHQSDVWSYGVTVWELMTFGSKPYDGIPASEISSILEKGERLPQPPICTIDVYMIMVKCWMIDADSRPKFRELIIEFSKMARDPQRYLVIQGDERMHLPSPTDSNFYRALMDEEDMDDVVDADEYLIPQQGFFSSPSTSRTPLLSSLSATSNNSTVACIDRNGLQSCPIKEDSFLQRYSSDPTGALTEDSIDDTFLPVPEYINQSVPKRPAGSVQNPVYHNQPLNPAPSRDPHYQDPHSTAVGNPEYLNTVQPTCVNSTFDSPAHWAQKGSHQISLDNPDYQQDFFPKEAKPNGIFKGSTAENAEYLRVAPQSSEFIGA
For data set [1], the system named is BT-474 (human breast cancer cell). Kind of data set: In vitro proliferation inhibition assay of cell lines (CellTiter-Glo), BT-474. In kind it is cell-based. To be noted: BT-474 cells, 72 hours. The method in brief: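 Cells were exposed to nine compound concentrations in duplicate for 72 h at 37 °C and 5% CO2. Viability was read with CellTiter-Glo reagent after equilibration at room temperature.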

A further data set has as its target T1, CYP2D6 (Homo sapiens, UniProt P10635).
T1 construct: A system of 100 μL human liver microsomes; from tissue; host or cells: human liver microsomes
Kind of data set: Direct inhibition (DI) of CYP2D6 in human liver microsomes. To be noted: probe Dextromethorphan, human liver microsomes 0.2 mg/mL, 10 μM compound, read-out: Direct inhibition (DI) 2D6 (Dextromethorphan). In kind it is in vitro ADME. The method in brief:
(§1)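 Pooled human liver microsomes (0.2 mg/mL) with 1 mM NADPH and 10 μM test compound were incubated for 20 min with a mixed probe-substrate cocktail (midazolam 10 μM, testosterone 100 μM, dextromethorphan 10 μM, diclofenac 20 μM, phenacetin 100 μM, mephenytoin 100 μM). Relative enzyme activity came from metabolite formation versus DMSO control.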
In general terms: Liver microsomes are vesicles of endoplasmic reticulum, rich in cytochrome P450 enzymes.

In the next data set the target is T2, CYP2C9 (Homo sapiens, UniProt P11712).
T2 construct: A system of 100 μL human liver microsomes; from tissue; host or cells: human liver microsomes
T2 sequence (P11712 whole entry): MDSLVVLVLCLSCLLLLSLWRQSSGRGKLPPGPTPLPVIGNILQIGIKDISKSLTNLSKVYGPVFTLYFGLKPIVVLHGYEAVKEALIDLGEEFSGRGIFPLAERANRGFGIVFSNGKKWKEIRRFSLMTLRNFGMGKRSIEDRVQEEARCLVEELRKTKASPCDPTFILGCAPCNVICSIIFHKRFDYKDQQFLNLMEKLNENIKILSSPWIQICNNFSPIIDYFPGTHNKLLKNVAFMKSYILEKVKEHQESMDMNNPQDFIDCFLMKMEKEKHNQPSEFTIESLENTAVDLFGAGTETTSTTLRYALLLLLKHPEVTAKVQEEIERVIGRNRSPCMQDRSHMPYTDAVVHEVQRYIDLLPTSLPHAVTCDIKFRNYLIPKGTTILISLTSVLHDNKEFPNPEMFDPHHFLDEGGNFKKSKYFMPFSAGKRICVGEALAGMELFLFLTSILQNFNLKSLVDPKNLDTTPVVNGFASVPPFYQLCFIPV
Put plainly: Direct inhibition (DI) of CYP2C9 in human liver microsomes. The settings on record: probe Diclofenac, human liver microsomes 0.2 mg/mL, 10 μM compound, read-out: Direct inhibition (DI) 2C9 (Diclofenac). In kind it is in vitro ADME. The method in brief: as §1

Data set [2] is described as follows: In vivo pharmacokinetics study in beagle dogs. To be noted: male, beagle, dog, in vivo, po, 15 mg/kg. On the procedure: 6 male beagle dogs (purchased from Beijing Marshall Biotechnology Co., Ltd., certificate No. SCXK (Beijing) 2016-0001) were divided into 2 groups with 3 dogs in each group, and all of the animals were fasted for about 12 hours before administration. One group was orally administrated with 15 mg/kg of the final product of Embodiment 22 (deionized water was added, followed by sonication for 29 minutes and stirring for 4 minutes, and a clear pale yellow dosing solution with a concentration of 3 mg/mL was prepared); the other group was orally administrated with 15 mg/kg of Pyrotinib (deionized water was added, followed by sonication for 28 minutes and stirring for 5 minutes, and a clear yellow dosing solution with a concentration of 3 mg/mL was prepared). Blood samples were collected before administration and at 15, 30, 60, 90, 120, 150, 180, 240, 360, 480, 720 and 1440 minutes respectively after administration.
(§2) 1.0 mL of blood was collected from each animal through jugular vein puncture at each time point and heparin sodium was used for anticoagulation. The blood samples were collected and placed in labeled centrifuge tubes, and plasma was centrifuged (centrifugation conditions: 3500 rpm, 10 minutes, 2-8° C.). To 50 μL of plasma sample was added 300 μL of acetonitrile containing internal standard (Propranolol, 25 ng/mL) to precipitate the protain. After vortexing for 10 minutes and centrifuging at 6000 g for 20 minutes, 100 μL of supernatant was taken and injected into a 96-well plate. The drug concentration in plasma was determined by UPLC/MS-MS.

Data set [3] is described as follows: In vivo pharmacokinetics study in cynomolgus monkeys. To be noted: male, cynomolgus monkey, in vivo, po, 15 mg/kg. On the procedure:
6 male cynomolgus monkeys (purchased from Guangxi Guidong Primate Development Experiment Co., Ltd., certificate No. SCXK (Guangxi) 2013-0057) were divided into 2 groups with 3 in each group, and all of the animals were fasted for about 12 hours before administration. One group was orally administrated with 15 mg/kg of the final product of Embodiment 22 (deionized water was added, followed by sonication for 30 minutes and stirring for 3 minutes, and a clear pale yellow dosing solution with a concentration of 3 mg/mL was prepared); one group was administrated with 15 mg/kg of Pyrotinib (deionized water was added, followed by sonication for 30 minutes and stirring for 4 minutes, and a clear yellow dosing solution with a concentration of 3 mg/mL was prepared). Blood samples were collected before administration and at 15, 30, 60, 90, 120, 150, 180, 240, 360, 480, 720 and 1440 minutes respectively after administration.
as §2

Each structure is given as a SMILES string.

T1 sequence (P10635 whole entry): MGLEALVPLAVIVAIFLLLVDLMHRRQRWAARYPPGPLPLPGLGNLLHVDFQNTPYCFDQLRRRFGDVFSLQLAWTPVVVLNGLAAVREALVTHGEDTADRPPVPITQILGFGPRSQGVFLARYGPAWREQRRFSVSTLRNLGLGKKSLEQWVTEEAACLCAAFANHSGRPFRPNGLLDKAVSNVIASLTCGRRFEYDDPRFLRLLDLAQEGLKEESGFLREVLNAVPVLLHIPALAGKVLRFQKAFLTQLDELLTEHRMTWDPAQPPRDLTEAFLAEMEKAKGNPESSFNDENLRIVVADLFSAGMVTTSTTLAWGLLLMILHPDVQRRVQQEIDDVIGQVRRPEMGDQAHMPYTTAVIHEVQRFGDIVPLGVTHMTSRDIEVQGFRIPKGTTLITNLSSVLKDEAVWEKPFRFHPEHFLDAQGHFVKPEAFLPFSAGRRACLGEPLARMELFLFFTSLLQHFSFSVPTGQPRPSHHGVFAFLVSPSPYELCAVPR

`CCOc1cc2ncnc(Nc3ccc(Oc4ccn5ncnc5c4)c(C)c3)c2cc1NC(=O)/C(F)=C/[C@H]1CCCN1C` [Final product of Embodiment 45]: the concentration for half-maximal inhibition (IC50) at EGFR kinase worked out at 10.5 nM; in data set [1], 2.1 nM. Besides, the inhibition at 20 min, 10 µM is 39% on CYP2D6 and under 0% on CYP2C9.
As to `CCOc1cc2ncnc(Nc3ccc(Oc4ccn5ncnc5c4)c(C)c3)c2cc1NC(=O)/C=C/[C@H]1CCCN1C` [Final product of Embodiment 22, (R,E)-N-(4-((4-([1,2,4]triazolo[1,5-a]pyridin-7-yloxy)-3-methylphenyl)amino)-7-ethoxyquinazolin-6-yl)-3-(1-methylpyrrolidin-2-yl)acrylamide], the results for the IC50 (at EGFR kinase; in data set [1]) were 0.8 nM and 1 nM, respectively. Moreover, the inhibition at 20 min, 10 µM at CYP2D6 came to 48%; on CYP2C9, 10%. Moreover, the values for the AUC in data set [2] and in data set [3] were 5190 ng·h/mL and 5580 ng·h/mL, respectively. Also, the “peak oral absorption concentration” value in data set [2] is 432.6 ng/mL. Besides, the “oral absorption peak concentration” value in data set [3] was found to be 506.5 ng/mL.

The values are drawn from patent US11578074B2, “Nitrogenous heterocyclic compound, preparation method, intermediate, composition, and application” (SHANGHAI PHARMACEUTICALS HOLDING CO., LTD., priority 2017, dated 2023).
